Measurements published in ChEMBL document CHEMBL1137357, “Further synthetic and biological studies on vitamin D hormone antagonists based on C24-alkylation and C2alpha-functionalization of 25-dehydro-1alpha-hydroxyvitamin D(3)-26,23-lactones” (J Med Chem, 2006).

Molecular target: T1, Vitamin D3 receptor (Homo sapiens) (UniProt P11473)
T1 sequence (whole entry): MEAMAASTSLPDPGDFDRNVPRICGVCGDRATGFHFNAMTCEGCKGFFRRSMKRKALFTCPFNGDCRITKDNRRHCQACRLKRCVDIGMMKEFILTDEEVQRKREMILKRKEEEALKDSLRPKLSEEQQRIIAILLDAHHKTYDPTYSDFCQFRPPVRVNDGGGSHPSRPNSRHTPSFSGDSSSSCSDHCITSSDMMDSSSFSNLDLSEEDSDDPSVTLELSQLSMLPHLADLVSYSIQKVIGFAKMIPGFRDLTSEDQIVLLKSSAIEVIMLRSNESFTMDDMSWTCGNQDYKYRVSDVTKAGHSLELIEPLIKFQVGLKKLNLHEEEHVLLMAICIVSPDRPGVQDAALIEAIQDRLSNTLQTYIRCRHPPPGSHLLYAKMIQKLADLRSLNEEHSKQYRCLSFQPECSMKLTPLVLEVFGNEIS
Test: Antagonist activity against 1-alpha,25-dihydroxy vitamin D3-induced HL60 cell differentiation by NBT reduction method relative to TEI-9647
Format: functional, cell-based
Parameters: scale not given: the % may be the effect or the level left
Details: HL-60

Row | SMILES | Activity [%]
1 | C=C1C(=O)O[C@@H](C[C@@H](C)[C@H]2CC[C@H]3/C(=C/C=C4/C[C@@H](O)[C@H](OCCCO)[C@H](O)C4=C)CCC[C@]23C)[C@@H]1C | 1740
2 | C=C1C(=O)O[C@@H](C[C@@H](C)[C@H]2CC[C@H]3/C(=C/C=C4/C[C@@H](O)C[C@H](O)C4=C)CCC[C@]23C)[C@@H]1CC(C)C | 40
3 | C=C1/C(=C\C=C2/CCC[C@]3(C)[C@@H]([C@H](C)C[C@H]4OC(=O)C(=C)[C@@H]4CC(C)C)CC[C@@H]23)C[C@@H](O)[C@H](C)[C@@H]1O | 4
4 | C=C1/C(=C\C=C2/CCC[C@]3(C)[C@@H]([C@H](C)C[C@@H]4OC(=O)C(=C)[C@@H]4CCCC)CC[C@@H]23)C[C@@H](O)[C@H](C)[C@@H]1O | 2910
5 | C=C1/C(=C\C=C2/CCC[C@]3(C)[C@@H]([C@H](C)C[C@H]4OC(=O)C(=C)[C@H]4CC)CC[C@@H]23)C[C@@H](O)[C@H](C)[C@@H]1O | 74
6 | C=C1/C(=C\C=C2/CCC[C@]3(C)[C@@H]([C@H](C)C[C@H]4OC(=O)C(=C)[C@@H]4CCCC)CC[C@@H]23)C[C@@H](O)[C@H](OCCCO)[C@@H]1O | 88
7 | C=C1/C(=C\C=C2/CCC[C@]3(C)[C@@H]([C@H](C)C[C@@H]4OC(=O)C(=C)[C@@H]4CC(C)C)CC[C@@H]23)C[C@@H](O)C[C@@H]1O | 174
8 | C=C1/C(=C\C=C2/CCC[C@]3(C)[C@@H]([C@H](C)C[C@H]4OC(=O)C(=C)[C@@H]4CC)CC[C@@H]23)C[C@@H](O)[C@H](CCCO)[C@@H]1O | 37
9 | C=C1C(=O)O[C@H](C[C@@H](C)[C@H]2CC[C@H]3/C(=C/C=C4/C[C@@H](O)C[C@H](O)C4=C)CCC[C@]23C)[C@@H]1CCC | 38
10 | C=C1C(=O)O[C@H](C[C@@H](C)[C@H]2CC[C@H]3/C(=C/C=C4/C[C@@H](O)C[C@H](O)C4=C)CCC[C@]23C)[C@@H]1CCCC | 17
11 | C=C1/C(=C\C=C2/CCC[C@]3(C)[C@@H]([C@H](C)C[C@H]4OC(=O)C(=C)[C@@H]4CCC)CC[C@@H]23)C[C@@H](O)C[C@@H]1O | 8
12 | C=C1C(=O)O[C@@H](C[C@@H](C)[C@H]2CC[C@H]3/C(=C/C=C4/C[C@@H](O)[C@H](CCCO)[C@H](O)C4=C)CCC[C@]23C)[C@@H]1C | 1510
13 | C=C1C(=O)O[C@H](C[C@@H](C)[C@H]2CC[C@H]3/C(=C/C=C4/C[C@@H](O)[C@H](OCCCO)[C@H](O)C4=C)CCC[C@]23C)[C@@H]1C | 41
14 | C=C1/C(=C\C=C2/CCC[C@]3(C)[C@@H]([C@H](C)C[C@H]4OC(=O)C(=C)[C@H]4CC(C)C)CC[C@@H]23)C[C@@H](O)[C@H](OCCCO)[C@@H]1O | 25
15 | C=C1/C(=C\C=C2/CCC[C@]3(C)[C@@H]([C@H](C)C[C@@H]4OC(=O)C(=C)C45CC5)CC[C@@H]23)C[C@@H](O)C[C@@H]1O | 284
16 | C=C1/C(=C\C=C2/CCC[C@]3(C)[C@@H]([C@H](C)C[C@@H]4OC(=O)C(=C)[C@@H]4CCCC)CC[C@@H]23)C[C@@H](O)[C@H](CCCO)[C@@H]1O | 1160
17 | C=C1/C(=C\C=C2/CCC[C@]3(C)[C@@H]([C@H](C)C[C@@H]4OC(=O)C(=C)[C@@H]4C)CC[C@@H]23)C[C@@H](O)C[C@@H]1O | 220
18 | C=C1/C(=C\C=C2/CCC[C@]3(C)[C@@H]([C@H](C)C[C@@H]4OC(=O)C(=C)[C@H]4CCC)CC[C@@H]23)C[C@@H](O)[C@H](OCCCO)[C@@H]1O | 12100
19 | C=C1C(=O)O[C@@H](C[C@@H](C)[C@H]2CC[C@H]3/C(=C/C=C4/C[C@@H](O)C[C@H](O)C4=C)CCC[C@]23C)[C@@H]1CCCC | 58
20 | C=C1/C(=C\C=C2/CCC[C@]3(C)[C@@H]([C@H](C)C[C@H]4OC(=O)C(=C)[C@@H]4CC(C)C)CC[C@@H]23)C[C@@H](O)[C@H](CCCO)[C@@H]1O | 32
21 | C=C1/C(=C\C=C2/CCC[C@]3(C)[C@@H]([C@H](C)C[C@@H]4OC(=O)C(=C)[C@@H]4C)CC[C@@H]23)C[C@@H](O)[C@H](CCCO)[C@@H]1O | 517
22 | C=C1/C(=C\C=C2/CCC[C@]3(C)[C@@H]([C@H](C)C[C@H]4OC(=O)C(=C)[C@@H]4CCC)CC[C@@H]23)C[C@@H](O)[C@H](OCCCO)[C@@H]1O | 124
